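Method: 48-hour compound exposure of cells in 96-well plates, five concentrations, linear interpolation of endpoints. TGI is the concentration that stops growth completely.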
Legend:
Experiment in all cases: DTP human tumour cell line panel, 48 h
[1] = tested on: SK-OV-3 ovarian
[2] = tested on: SK-MEL-28 melanoma
[3] = tested on: MCF7 breast
[4] = tested on: SK-MEL-5 melanoma
[5] = tested on: MOLT-4 leukemia
[6] = tested on: ACHN renal
[7] = tested on: HL-60(TB) leukemia
[8] = tested on: KM12 colon
[9] = tested on: SF-268 CNS
[10] = tested on: U251 CNS
[11] = tested on: BT-549 breast
[12] = tested on: HOP-92 NSCLC
[13] = tested on: HS 578T breast
[14] = tested on: HCT-116 colon
[15] = tested on: RPMI-8226 leukemia
[16] = tested on: OVCAR-3 ovarian
[17] = tested on: NCI-H226 lung
[18] = tested on: TK-10 renal
[19] = tested on: HT29 colon
[20] = tested on: A498 renal
[21] = tested on: DU-145 prostate
[22] = tested on: LOX IMVI melanoma
[23] = tested on: SW-620 colon
[24] = tested on: COLO 205 colon
[25] = tested on: HCC-2998 colon
[26] = tested on: UO-31 renal
[27] = tested on: OVCAR-8 ovarian
[28] = tested on: SK-MEL-2 melanoma
[29] = tested on: SNB-19 CNS
[30] = tested on: EKVX NSCLC
[31] = tested on: PC-3 prostate
[32] = tested on: K-562 leukemia
[33] = tested on: A549 NSCLC
[34] = tested on: HCT-15 colon
[35] = tested on: OVCAR-4 ovarian
[36] = tested on: 786-0 renal
[37] = tested on: IGROV1 ovarian
[38] = tested on: MDA-N
[39] = tested on: SF-539 CNS
[40] = tested on: M14 melanoma
[41] = tested on: OVCAR-5 ovarian
[42] = tested on: SNB-75 CNS
[43] = tested on: MALME-3M melanoma
[44] = tested on: SR leukemia
[45] = tested on: MDA-MB-435
[46] = tested on: CCRF-CEM leukemia
[47] = tested on: UACC-62 melanoma
[48] = tested on: SN12C renal
[49] = tested on: NCI-H522 lung
[50] = tested on: SF-295 CNS
[51] = tested on: NCI-H460 lung
[52] = tested on: HOP-62 NSCLC
[53] = tested on: NCI/ADR-RES ovarian
[54] = tested on: UACC-257 melanoma
[55] = tested on: CAKI-1 renal
[56] = tested on: NCI-H23 lung
[57] = tested on: RXF 393 renal

Measured: TGI

O=C(O)C(C(C(=O)O)P(=O)(O)O)P(=O)(O)O (stereo unspecified)
not listed: [48] | [49] | [50] | [51] | [52] | [53] | [54] | [55] | [56] | [57]
> 100 µM: all other assays above

Cc1cc2c(cc1C)[n+]([O-])c(NCCCN(C)C)c(C#N)[n+]2[O-]
not listed: [4] | [21] | [24]
> 100 µM: all other assays above

From PubChem BioAssay (NCI)
